Structures are written as SMILES. Where two headings read alike, the source gives them in different places.

Assay [1] has as its system PC3 human prostate cancer cells. Put plainly: Proliferation of PC3 prostate cancer cells (CellTiter 96). The class given is cell-based. The settings on record: read-out: IC50 for inhibiting proliferation of PC3 prostate cancer cells. The procedure:
FIG. 5, TH-1177 and TH-1211 are stereoisomers about one of two chiral centers and have different potencies at inhibiting the proliferation of PC3 prostate cancer cells. Panel A: The structures of TH-1177 and TH-1211 were determined as described in Materials and Methods. The diastereomers are racemic at the benzhydrol center (solid arrows) and enantiomeric at the proline center (open arrows) with TH-1177 having the S configuration and TH-1211 having the R. Panel B: The proliferation of PC3 human prostate cancer cells was determined as described in Materials and Methods.
(§1) LNCaP cells at 2.5×10^4 cells/well or PC-3 cells at 5×10^4 cells/well, both in a final volume of 100 IJI, were plated in triplicate in standard flat-bottomed 96-well tissue culture plates in the presence of drug or vehicle (DMSO). Unless otherwise indicated, cells were grown for 48 h at 37° C. in a CO2 incubator. Relative cell growth was determined with the CellTiter 96 aqueous cell proliferation assay (Promega, Madison, Wis.) as described by the manufacturer using an automated plate reader. Results were calculated in a blinded fashion and are the means of triplicate determinations.

Assay [2] concerns xenografted human PC3 prostate cancer cells. The settings on record: treatment with TH-1177; Haverstick et al. 2000; cited from earlier work.
The next assay concerns Jurkat cells. Put plainly: Proliferation of Jurkat cells with or without ionomycin. Conditions: for IC50: Homo sapiens, Jurkat cells, 48 hrs. Format: cell-based, human. The procedure:
FIG. 2. The Ca2+ ionophore ionomycin overcomes the inhibition of Ca2+ entry into and proliferation of Jurkat cells produced by TH-1177. Panel A. Ca2+ entry into Jurkat cells was determined as described in Materials and Methods. Ionomycin at the indicated concentrations was added at 30 s and the mitogenic monoclonal antibody (OKT3 was added at a concentration of 1 ug/ml at 60 s. Either EGTA at 2.5 mM or TH-1177 at the indicated concentrations was added at 150 s. The percentage inhibition was determined as described in Material and Methods. Panel B. Jurkat cells were grown for 48 hrs in the presence (open symbols) or absence (closed symbols) of 30 nM ionomycin and the indicated concentrations of TH-1177. Percent control growth was determined as described in Materials and Methods.
as §1

Regarding `COc1ccc(CCN2CCCC2COC(c2ccccc2)c2ccc(Cl)cc2)cc1` (stereo not drawn) [TH-1177], the IC50 in assay [1] was 14 µM; in the assay with Jurkat cells (in the presence of 30 uM ionomycin, read-out: IC50 of TH-1177 for inhibition of proliferation, in the presence of ionomycin) it was 4.6 µM; in the assay on Jurkat cells (ionomycin absent, read-out: IC50 of TH-1177 for inhibition of proliferation, in the absence of ionomycin), 17.8 µM. The “lifespan of mice bearing xenografted PC3 cells” value in assay [2] is “significantly extended the lifespan”.

Turning to `COc1ccc(CCN2CCCC2COC(c2ccccc2)c2ccc(Cl)cc2)cc1` (stereo not drawn) [TH-1211], in assay [1], the IC50 amounted to 42 µM.

In the case of `C[C@H](CCC(=O)O)C[C@H](C)C[C@H](C)C(=O)/C=C(\O)[C@H](C)C[C@H](C)C/C=C/[C@@H](C)[C@@H](O)[C@@H](C)[C@@H](O)C[C@@H]1CC[C@@](C)([C@H]2CC[C@@](C)([C@@H](C)O)O2)O1` [ionomycin, reference compound], the “effect on proliferation of ionomycin alone” value in the assay with Jurkat cells (30 nM ionomycin alone) is listed as “no effect”.

The values above are taken from US20120264804A1, “T TYPE CALCIUM CHANNEL BLOCKERS AND THE TREATMENT OF DISEASES” (University of Virginia Patent Foundation, priority 2004, published 2012).
